Columns and labels:
human serum SSAO = target: T1, human serum SSAO (Homo sapiens, UniProt Q16853); experiment: radiochemical determination of SSAO activity in human serum (14C-benzylamine substrate); type: biochemical; conditions: 20 min pre-incubation at room temperature, 37°C 40 min
T1 construct: from tissue; host or cells: human serum
T1 sequence (Q16853 29-763 limits assumed): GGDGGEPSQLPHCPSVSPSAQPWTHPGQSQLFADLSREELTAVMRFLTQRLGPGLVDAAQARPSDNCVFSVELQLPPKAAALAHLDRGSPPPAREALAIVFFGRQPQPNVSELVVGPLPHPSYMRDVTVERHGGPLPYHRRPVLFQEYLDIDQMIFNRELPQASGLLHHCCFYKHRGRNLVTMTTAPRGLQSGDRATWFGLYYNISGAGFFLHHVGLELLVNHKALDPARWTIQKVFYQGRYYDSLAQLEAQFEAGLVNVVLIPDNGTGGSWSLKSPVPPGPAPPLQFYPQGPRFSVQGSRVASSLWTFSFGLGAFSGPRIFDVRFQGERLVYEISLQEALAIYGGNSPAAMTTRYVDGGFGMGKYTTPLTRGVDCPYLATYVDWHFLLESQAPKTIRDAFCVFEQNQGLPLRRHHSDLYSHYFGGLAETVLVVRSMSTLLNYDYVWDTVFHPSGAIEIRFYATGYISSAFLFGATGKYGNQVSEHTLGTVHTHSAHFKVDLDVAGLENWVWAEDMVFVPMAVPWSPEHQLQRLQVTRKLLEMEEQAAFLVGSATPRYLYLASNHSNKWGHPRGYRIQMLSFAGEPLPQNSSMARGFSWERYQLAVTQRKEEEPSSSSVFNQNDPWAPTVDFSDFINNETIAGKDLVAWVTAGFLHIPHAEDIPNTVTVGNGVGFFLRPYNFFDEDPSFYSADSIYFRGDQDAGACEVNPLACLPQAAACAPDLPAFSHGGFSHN
Protocol: In the experiment human serum was used in the following way: blood samples were collected without anticoagulant, then stored at 4°C for 15 minutes and centrifuged (4°C, 2500 g/10 min). The supernatant was stored at -80°C until the measurement of the enzyme activity.
A radiochemical procedure (Yu P.H., Zuo D.M., Biochem. Pharmacol., 1992, 43, 307-312) was adapted for determining SSAO activities in the human serum. It is based on the determination of the quantity of ^14C-benzaldehyde formed by the enzyme reaction of ^14C-benzylamine.
The preparations containing the serum and the dihydralazine enzyme inhibitor were pre-incubated at room temperature for 20 min. The enzyme reaction was started with ^14C-benzylamine substrate (- 200000 dpm/tube). […] The enzyme activity was determined by liquid scintillation counting (600 µl supernatant + 5ml Aquasafe), using the formula below: ([dpm(sample)-dpm0ʹ] x 1.6 x 10 x 1.5)/(measured substrate activity dpm x mg protein) [formula] standing for: 1.6: extraction volume; 10: molar activity; 1.5: correction factor for the incubation time; dpm: disintegrations per minute (unit of radioactivity)
The inhibition was calculated in the % inhibition compared to the control ('control' sample not containing the inhibitor compound) after correction with the background ('blank' sample). […]

macular edema = macular edema of type 2 diabetic patients, retinal thickness by optical coherency tomography (OCT); type: in vivo, human; set-up: OCT CPT (center point thickness): unit not given beside the values; conditions: for OCT CPT (center point thickness) / OCT CST (central subfield thickness): oral 14.5 mg dihydralazine sulphate twice daily
Protocol: The effect of orally administered low dose dihydralazine on macular edema and serum SSAO activity was studied in type 2 diabetic patients in an early stage of macular edema formation.
(§1) After giving their informed consent, patients participating in the study were treated for 56 days taking ½ tablet twice daily of a pharmaceutical composition containing 28.9 mg dihydralazine sulphate (i.e. the ½ tablet contained 14.5 mg dihydralazine sulphate).
(§2) To measure the efficacy and monitor the safety of the treatment, the following examinations were carried out before starting the treatment and at the 1., 7., 14., 28. and 56. day of the treatment: • 1. ocular examinations: visual acuity (ETDRS chart), slit-lamp examination, measurement of intraocular pressure with applanation tonometry, fundus biomicroscopy with pupil dilation, digital fundus photography. The grade of macular edema was determined via measuring retinal thickness with optical coherency tomography (OCT). • 2. internal medicine examinations: anamnesis, physical examinations, blood pressure, pulse, urine examination. • 3. laboratory examinations: blood glucose, HbA1c, liver function, kidney function, microalbuminuria, metabolic panel of the blood , lipids, CRP.
(§3) In the table the following abbreviations were used: • BMI: body mass index - weight (kg) / height (m^2) • RRsyst: blood pressure (systolic) (Hgmm) • RRdiast: blood pressure (diastolic) (Hgmm) • OCT CST (central subfield thickness): the average thickness of the central 1-mm area of the macula • OCT CPT (center point thickness): the thickness of the center point of the retina; normally that is the thinnest point of the macula Table 4.

[1] = blood pressure of treated rats, determined in an invasive way; type: in vivo; conditions: sc 0.1 or 0.01 M solution (0.1 ml/100 g) once daily for 1-5 days, compared to the control group
Protocol: The blood pressure of the animals was determined in an invasive way. […]

[2] = blood pressure and pulse of treated type 2 diabetic patients; type: in vivo, human; conditions: oral 14.5 mg dihydralazine sulphate twice daily; for RRsyst: blood pressure (systolic): before treatment 153
Protocol: as §1, §2, §3

IC20 (human serum SSAO): 500 nM
Compound: NNc1nnc(NN)c2ccccc12 [dihydralazine]
OCT CPT (center point thickness) (macular edema; 1. patient, 14. day, before treatment 272): 215 | OCT CST (central subfield thickness) (macular edema; 1. patient, 14. day, before treatment 298): 266 | OCT CPT (center point thickness) (macular edema; 1. patient, 28. day, before treatment 272): 219 | OCT CST (central subfield thickness) (macular edema; 1. patient, 28. day, before treatment 298): 273 | OCT CPT (center point thickness) (macular edema; 1. patient, 56. day, before treatment 272): 209 | OCT CST (central subfield thickness) (macular edema; 1. patient, 56. day, before treatment 298): 265 | OCT CPT (center point thickness) (macular edema; 2. patient, 14. day, before treatment 257): 319 | OCT CST (central subfield thickness) (macular edema; 2. patient, 14. day, before treatment 302): 323 | OCT CPT (center point thickness) (macular edema; 2. patient, 28. day, before treatment 257): 239 | OCT CST (central subfield thickness) (macular edema; 2. patient, 28. day, before treatment 302): 286 | OCT CPT (center point thickness) (macular edema; 2. patient, 56. day, before treatment 257): 201 | OCT CST (central subfield thickness) (macular edema; 2. patient, 56. day, before treatment 302): 252 | macular edema (macular edema; 2 treated type 2 diabetic patients, oral 14.5 mg dihydralazine sulphate twice daily for 56 days): significant decrease of the macular edema was observed in the fovea | blood pressure of the animals [1]: did not cause lowering of the blood pressure | pulse ([2]; 1. patient, 14. day, before treatment 60): 69 beats/min | RRdiast: blood pressure (diastolic) ([2]; 1. patient, 14. day, before treatment 63): 70 Hgmm | RRsyst: blood pressure (systolic) ([2]; 1. patient, 14. day): 154 Hgmm | pulse ([2]; 1. patient, 28. day, before treatment 60): 69 beats/min | RRdiast: blood pressure (diastolic) ([2]; 1. patient, 28. day, before treatment 63): 68 Hgmm | RRsyst: blood pressure (systolic) ([2]; 1. patient, 28. day): 152 Hgmm | pulse ([2]; 1. patient, 56. day, before treatment 60): 60 beats/min | RRdiast: blood pressure (diastolic) ([2]; 1. patient, 56. day, before treatment 63): 67 Hgmm | RRsyst: blood pressure (systolic) ([2]; 1. patient, 56. day): 161 Hgmm | RRdiast: blood pressure (diastolic) ([2]; 2. patient, 14. day, before treatment 76): 65 Hgmm | pulse ([2]; 2. patient, 14. day, before treatment 79): 89 beats/min | RRsyst: blood pressure (systolic) ([2]; 2. patient, 14. day): 150 Hgmm | RRdiast: blood pressure (diastolic) ([2]; 2. patient, 28. day, before treatment 76): 74 Hgmm | pulse ([2]; 2. patient, 28. day, before treatment 79): 93 beats/min | RRsyst: blood pressure (systolic) ([2]; 2. patient, 28. day): 158 Hgmm | RRdiast: blood pressure (diastolic) ([2]; 2. patient, 56. day, before treatment 76): 64 Hgmm | pulse ([2]; 2. patient, 56. day, before treatment 79): 77 beats/min | RRsyst: blood pressure (systolic) ([2]; 2. patient, 56. day): 126 Hgmm | blood pressure ([2]; type 2 diabetic patients): did not cause significant change of blood pressure
